Here are results for 3 compounds from publication PMC11513893, “Discovery of Oral Degraders of the ROS1 Fusion Protein with Potent Activity against Secondary Resistance Mutations” (Journal of Medicinal Chemistry, 2024).

Structures are written as SMILES.

In assay [1] the test system is Ba/F3 CD74-ROS1 non mutant. In words: Antiproliferation assay (Alamar Blue, 72 h). Type of assay: cell-based, mouse. The note with it: Mus musculus, BaF3, 72 h, Ba/F3 cells, cell growth inhibition.
The test system of another assay is Ba/F3 ROS1-G2032R. Briefly: Antiproliferation assay. The assay is classed as cell-based, mouse. The following applies: Mus musculus, BaF3; Ba/F3 cells, cell growth inhibition, 72 h.
Another assay has as its system Ba/F3 ROS1 D2033N. In words: Antiproliferation assay. Type of assay: cell-based. The following applies: Mus musculus, BaF3; Ba/F3 cells, cell growth inhibition. An excerpt:
(§1) To assess targeted degradation of ROS1 fusion proteins, we first established a mouse pro-B cell line Ba/F3 as a model expressing the CD74-ROS1 oncogene or CD74-ROS1 with clinically observed secondary/tertiary mutations. The Ba/F3 cell line is dependent on interleukin-3 for survival and proliferation. Upon transduction of oncogenic ROS1, Ba/F3 cells become independent of interleukin-3 but dependent on the transduced driver gene.
(§2) Ba/F3 immortalized murine bone marrow–derived pro-B cells were obtained from Creative Biogene (Shirley, NY) and cultured in RPMI supplemented with 10% FBS and IL3 (0.5 ng/mL). Ba/F3 cells expressing ROS1 variants were maintained in RPMI supplemented with 10% FBS and puromycin (0.7 mg/mL). […] Each compound was dissolved in DMSO and serially diluted in RPMI for cell culture experiments.
(§3) To assess the 72 h effect of drug treatment on cell proliferation, 2000 to 3000 cells were plated in replicates of three in 96-well plates. The plates were placed in an incubator at 37 °C, 5% CO2 for 72 h. Following drug treatments, the cells were incubated with the Alamar Blue Assay reagent (BioRad), 5 μL each well for 4 h at 37 °C and 5% CO2. Luminescence was measured on a multiplate reader and analyzed. […] IC50 values were determined using a nonlinear regression model with a sigmoidal dose response in GraphPad. The data were collected based on triplicate experiments, and presented as mean ± SD.
(§4) The resulting virus was used to infect Ba/F3 cells. After retroviral infection, Ba/F3 cells were selected by incubation with puromycin (0.7 mg/mL) for 2 weeks. For Ba/F3 cells infected by the CD74–ROS1 variants, IL3 was withdrawn from the culture medium at least 2 weeks before the experiments.

Another assay deals with Ba/F3 ROS1 G2032R-F2075V. Briefly: Antiproliferation assay. The assay is classed as cell-based. The note with it: Mus musculus, BaF3; Ba/F3 cells, cell growth inhibition.
Description: as §1, §2, §3, §4

The next assay has as its system Ba/F3 ROS1 L2026M. In words: Antiproliferation assay. The note with it: Mus musculus, BaF3; Ba/F3 cells, cell growth inhibition. The assay is classed as cell-based.
Description: as §1, §2, §3, §4

Another assay concerns Ba/F3 ROS1 L2086F. In words: Antiproliferation assay. Type of assay: cell-based. The note with it: Mus musculus, BaF3; Ba/F3 cells, cell growth inhibition.
Description: as §1, with “gene. The Ba/F3 models have been effectively employed in the discovery and preclinical development of next generation ROS1 inhibitors.[11],[14],[15] We have tested ROS1 inhibitors against these Ba/F3 cells to validate their sensitivity and resistance to ROS1 inhibition.” for “gene.”
(§5) Ba/F3 immortalized murine bone marrow–derived pro-B cells were obtained from Creative Biogene (Shirley, NY) and cultured in RPMI supplemented with 10% FBS and IL3 (0.5 ng/mL). Ba/F3 cells expressing ROS1 variants were maintained in RPMI supplemented with 10% FBS and puromycin (0.7 mg/mL). Crizotinib, ceritinib, brigatinib, repotrectinib, and lorlatinib were purchased from MedChem Express. Each compound was dissolved in DMSO and serially diluted in RPMI for cell culture experiments.
as §3
(§6) cDNA encoding CD74-ROS1 or mutant CD74–ROS1 was cloned into retroviral expression vectors (pLenti), and viruses were generated in HEK293T cells by transfecting with packaging plasmids. The resulting virus was used to infect Ba/F3 cells. After retroviral infection, Ba/F3 cells were selected by incubation with puromycin (0.7 mg/mL) for 2 weeks. For Ba/F3 cells infected by the CD74–ROS1 variants, IL3 was withdrawn from the culture medium at least 2 weeks before the experiments.

Assay [2] deals with Ba/F3 cell lines engineered to express the oncogenic ROS1 rearrangement. The note with it: cited from earlier work.
The test system of assay [3] is Ba/F3 CD74-ROS1 WT xenograft tumors. Briefly: Mouse efficacy study, Ba/F3 CD74-ROS1 xenograft. The assay is classed as in vivo. The note with it: NOD/SCID mice, 30 mg/kg PO qd. The procedure:
(§7) All the procedures related to animal handling, care, and treatment in this study were performed according to guidelines approved by the Institutional Animal Care and Use Committee (IACUC) of Xavier University of Louisiana following the guidance of the AAALAC. Ba/F3-ROS1 and Ba/F3-ROS1-G2032R cells were maintained in RPMI 1640 medium supplemented with 10% fetal bovine serum. The cells growing in an exponential growth phase were harvested and counted for tumor inoculation. Female NOD/SCID mice 6–8 weeks of age were allowed to adapt to laboratory conditions for 10 days prior to dosing and were allowed food and water ad libitum. Each mouse was inoculated subcutaneously in the right flank with Ba/F3 CD74-ROS1 or Ba/F3 SL34A2-ROS1 G2032R cells (1 × 10^6) in 0.2 mL of PBS mixed with Matrigel (50:50) for tumor development.

In assay [4] the test system is Ba/F3 SLC34A2-ROS1 G2032R xenograft tumors. In words: Mouse efficacy study, Ba/F3 SLC34A2-ROS1 G2032R xenograft. The assay is classed as in vivo. The following applies: NOD/SCID mice, 30 mg/kg PO qd. The protocol: as §7
On the set-up of assay [5]: method as in PMID 30980071. The note with it: patients; cited from earlier work.
Assay [6] relates to Ba/F3 ROS1 (SLC34A2) D2033N. In words: Antiproliferation assay. The assay is classed as cell-based. The following applies: Mus musculus, BaF3; Ba/F3 cell line. The protocol: as §2, §3
The test system of assay [7] is Ba/F3 ROS1 (SLC34A2) G2032R-F2075 V. Briefly: Antiproliferation assay. Type of assay: cell-based. The note with it: Mus musculus, BaF3; Ba/F3 cell line. The protocol:
as §2, §3

The test system of assay [8] is Ba/F3 ROS1 (SLC34A2) G2032R. In words: Antiproliferation assay. Type of assay: cell-based. The note with it: Mus musculus, BaF3; Ba/F3 cell line. The protocol: as §2, §3
The subject of assay [9] is Ba/F3 ROS1 (SLC34A2) L2026M. Briefly: Antiproliferation assay. The note with it: Mus musculus, BaF3; Ba/F3 cell line. The assay is classed as cell-based. The protocol: as §2, §3
In assay [10] the test system is Ba/F3 ROS1 (SLC34A2) V2098I. In words: Antiproliferation assay. The following applies: Mus musculus, BaF3; Ba/F3 cell line. Type of assay: cell-based. The protocol:
as §2, §3

The test system of assay [11] is Ba/F3 ROS1 (SLC34A2) F2075C-G1837E. In words: Antiproliferation assay. Type of assay: cell-based. The note with it: Mus musculus, BaF3; Ba/F3 cell line. The procedure:
as §5, §3

The subject of assay [12] is Ba/F3 ROS1 (SLC34A2) G2032R-D2113G. In words: Antiproliferation assay. The assay is classed as cell-based. The note with it: Mus musculus, BaF3; Ba/F3 cell line. The protocol: as §5, §3
The subject of assay [13] is Ba/F3 ROS1 (SLC34A2) G2032R-F2075C. In words: Antiproliferation assay. The assay is classed as cell-based. The following applies: Mus musculus, BaF3; Ba/F3 cell line. The protocol: as §5, §3
In assay [14] the test system is Ba/F3 ROS1 (CD74) G2032R-L2086F. Briefly: Antiproliferation assay. Type of assay: cell-based. The following applies: Mus musculus, BaF3; Ba/F3 cell line. The protocol:
as §5, §3, §6

The subject of another assay is Ba/F3 ROS1 (CD74) G2032R. Briefly: Antiproliferation assay. The assay is classed as cell-based. The following applies: Mus musculus, BaF3; Ba/F3 cell line. The procedure:
as §5, §3, §6

The test system of the next assay is Ba/F3 ROS1 (CD74) L2086F. In words: Antiproliferation assay. The assay is classed as cell-based. The note with it: Mus musculus, BaF3; Ba/F3 cell line. The protocol:
as §5, §3, §6

Assay [15] concerns Ba/F3 ROS1 (CD74) S1986F-G2032R-L2086F. Briefly: Antiproliferation assay. The assay is classed as cell-based. The note with it: Mus musculus, BaF3; Ba/F3 cell line. The procedure: as §5, §3, §6
For assay [16], the system named is Ba/F3 ROS1 (CD74) S1986F-G2032R. In words: Antiproliferation assay. The assay is classed as cell-based. The note with it: Mus musculus, BaF3; Ba/F3 cell line. The protocol: as §5, §3, §6
In assay [17] the test system is Ba/F3 ROS1 (CD74) S1986F-L2086F. Briefly: Antiproliferation assay. Type of assay: cell-based. The note with it: Mus musculus, BaF3; Ba/F3 cell line. The procedure:
as §5, §3, §6

Regarding `Cc1cc(Nc2ncc(Cl)c(Nc3ccccc3S(=O)(=O)C(C)C)n2)c(OC(C)C)cc1C1CCNCC1` [ceritinib], the IC50 in [1] was 14.5 ± 2.2 nM; in the assay with Ba/F3 ROS1-G2032R, 821 ± 148 nM; in the assay on Ba/F3 ROS1 D2033N, 135 ± 27 nM; in the assay with Ba/F3 ROS1 G2032R-F2075V, over 2000 nM; with Ba/F3 ROS1 L2026M, 43 ± 5 nM; in the assay with Ba/F3 ROS1 L2086F it was 215 ± 33 nM. In addition, the IC50 in assay [2] was 180 nM.

For the compound `C[C@@H](Oc1cc(-c2cnn(C3CCNCC3)c2)cnc1N)c1c(Cl)ccc(F)c1Cl` [crizotinib], the IC50 in the assay with Ba/F3 ROS1-G2032R is over 2000 nM; in the assay with Ba/F3 ROS1 D2033N it was 187 ± 39 nM; with Ba/F3 ROS1 G2032R-F2075V, over 2000 nM; in the assay on Ba/F3 ROS1 L2086F, 745 ± 88 nM. Also, the “TGI (tumor growth inhibition)” value in [3] stood at 35%; in assay [4], 7%. Also, the objective response rate in [5] is reported as 72%. Besides, the progression-free survival in assay [5] was 19.2 months.

For `C[C@H]1Oc2cc(cnc2N)-c2c(nn(C)c2C#N)CN(C)C(=O)c2ccc(F)cc21` [lorlatinib], the IC50 with Ba/F3 ROS1-G2032R was 338 ± 55 nM; in the assay with Ba/F3 ROS1 D2033N, 7.6 ± 1.3 nM; in the assay on Ba/F3 ROS1 G2032R-F2075V, 233 ± 31 nM; in the assay on Ba/F3 ROS1 L2026M, 1 ± 0.4 nM; with Ba/F3 ROS1 L2086F it was over 2000 nM; in [6], 7.6 ± 0.5 nM. Further, the IC50 in [7] amounted to 341 ± 75.5 nM; in assay [8], 244 ± 35.3 nM; in assay [9], 1.1 ± 0.2 nM; in assay [10], 1.5 ± 0.4 nM; in assay [11], 0.1 ± 0.1 nM; in assay [12], 142 ± 25.1 nM. Moreover, the IC50 is over 2000 nM in assay [13]; over 2000 nM in [14]; 385 ± 76 nM in the assay on Ba/F3 ROS1 (CD74) G2032R; over 2000 nM in the assay with Ba/F3 ROS1 (CD74) L2086F; over 2000 nM in [15]; 503 ± 77.4 nM in assay [16]. In addition, in assay [17], the IC50 is over 2000 nM.
